What was measured:
HT29 cell line = experiment: cells
Method: (§1) Experiments were performed in triplicate.

DLD1 cell line = experiment: cells
Method: as §1

HOP62 cell line = experiment: cells; type: cell-based, human
Method: (§2) a. […] Experiments were performed in triplicate.

A549 cell line = experiment: cells; type: cell-based, human; conditions: 72 hours of drug exposure
Method: as §2

DV90 cell line = experiment: cells; type: cell-based, human
Method: as §2

MDA-MB-435 cell line = experiment: cells
Method: as §1
(§3) a. In the first set of assays, ICso values were determined for each drug after 72 hours of drug exposure in each of the tumor cell lines.

MDA-MB-231 cell line = experiment: cells
Method: as §1, §3

MCF7 cell line = experiment: cells
Method: as §1, §3

mouse leukemia (P388) = conditions: reported in EP 610.078; cited from earlier work
colon (HT-29) = conditions: reported in EP 610.078; cited from earlier work
[1] = tested on: non-small cell lung (A549); conditions: reported in EP 610.078; cited from earlier work
[2] = HT29, 72 hours of drug exposure
[3] = DLD1, 72 hours of drug exposure
[4] = MDA-MB-435, 72 hours of drug exposure
[5] = MDA-MB-231, 72 hours of drug exposure
[6] = MCF7, 72 hours of drug exposure

Compound	IC50 (HT29 cell line; [2]) [µM]	IC50 (DLD1 cell line; [3]) [µM]	IC50 (HOP62 cell line; 72 hours of drug exposure) [µM]	IC50 (A549 cell line) [µM]	IC50 (DV90 cell line; 72 hours of drug exposure) [µM]	IC50 (MDA-MB-435 cell line; [4]) [µM]	IC50 (MDA-MB-231 cell line; [5]) [µM]	IC50 (MCF7 cell line; [6]) [µM]	in vitro activity (mouse leukemia (P388))	in vitro activity (colon (HT-29))	in vitro activity [1]	IC50 (HT29 cell line; Homo sapiens, HT-29, 72 h) [µM]	IC50 (DLD1 cell line; Homo sapiens, DLD-1, 72 h) [µM]	IC50 (HOP62 cell line; Homo sapiens, HOP-62, 72 hours of drug exposure) [µM]	IC50 (A549 cell line; Homo sapiens) [µM]	IC50 (DV90 cell line; Homo sapiens, DV-90, 72 hours of drug exposure) [µM]	IC50 (MDA-MB-435 cell line; Homo sapiens, MDA-MB-435, 72 h) [µM]	IC50 (MDA-MB-231 cell line; Homo sapiens, MDA-MB-231, 72 h) [µM]	IC50 (MCF7 cell line; Homo sapiens, MCF7, 72 h) [µM]
C/C=C1\NC(=O)[C@H](Cc2ccccc2)NC(=O)[C@@H](C(C)C)NC(=O)[C@@H]([C@@H](C)CC)NC(=O)[C@H](NC(=O)[C@H](NC(=O)[C@H](CCCN)NC(=O)[C@H]2CCCN2C(=O)[C@H](NC(=O)[C@@H](NC(=O)[C@@H](NC(=O)[C@H](NC(=O)CC[C@@H](C)CC)C(C)C)[C@@H](C)O)C(C)C)C(C)C)[C@@H](C)CC)[C@@H](C)OC(=O)[C@H](C(C)C)NC1=O [PM02734, (4S)-MeHex-D-Val-L-Thr-L-Val-D-Val-D-Pro-L-Orn-D-allo-Ile-cyclo(D-allo-Thr-D-allo-Ile-D-Val-L-Phe-Z-Dhb-L-Val)]	0.55	0.35	4	0.2	0.3	0.5	6.5	0.6											
Nc1ccn([C@@H]2O[C@H](CO)[C@@H](O)C2(F)F)c(=O)n1 [Gemcitabine]	0.55	2	0.75	0.004	0.4	0.04	1	0.9											
Kahalalide F									micromolar activity	micromolar activity	micromolar activity								
N.N.[Cl][Pt][Cl] [Cisplatin]	6.6	24.8	8.25	8.25	16.5	2.64	8.25	16.5											
CC(=O)O[C@H]1C(=O)[C@@]2(C)[C@H]([C@H](OC(=O)c3ccccc3)[C@]3(O)C[C@H](OC(=O)[C@H](O)[C@@H](NC(=O)c4ccccc4)c4ccccc4)C(C)=C1C3(C)C)[C@]1(OC(C)=O)CO[C@@H]1C[C@@H]2O [Paclitaxel]												0.01	0.04	0.04	0.007	0.03	0.025	0.025	0.0075

Reference: patent publication US20110015135A1, “Antitumoral Treatments” (Pharma Mar S.A., priority 2008, published 2011)
